These results are taken from patent US8691865B2 (AbbVie Inc., priority 2008, dated 2014).

A value given as a limit tells only on which side of the number the result lay.

For one assay, the target named is human Cav2.2 (Homo sapiens, UniProt Q00975). Briefly: Assessment of calcium channel activity using FLIPR (Ca2+ influx in IMR32 cells). The format is cell-based.
Chain of human Cav2.2 (Q00975 whole entry): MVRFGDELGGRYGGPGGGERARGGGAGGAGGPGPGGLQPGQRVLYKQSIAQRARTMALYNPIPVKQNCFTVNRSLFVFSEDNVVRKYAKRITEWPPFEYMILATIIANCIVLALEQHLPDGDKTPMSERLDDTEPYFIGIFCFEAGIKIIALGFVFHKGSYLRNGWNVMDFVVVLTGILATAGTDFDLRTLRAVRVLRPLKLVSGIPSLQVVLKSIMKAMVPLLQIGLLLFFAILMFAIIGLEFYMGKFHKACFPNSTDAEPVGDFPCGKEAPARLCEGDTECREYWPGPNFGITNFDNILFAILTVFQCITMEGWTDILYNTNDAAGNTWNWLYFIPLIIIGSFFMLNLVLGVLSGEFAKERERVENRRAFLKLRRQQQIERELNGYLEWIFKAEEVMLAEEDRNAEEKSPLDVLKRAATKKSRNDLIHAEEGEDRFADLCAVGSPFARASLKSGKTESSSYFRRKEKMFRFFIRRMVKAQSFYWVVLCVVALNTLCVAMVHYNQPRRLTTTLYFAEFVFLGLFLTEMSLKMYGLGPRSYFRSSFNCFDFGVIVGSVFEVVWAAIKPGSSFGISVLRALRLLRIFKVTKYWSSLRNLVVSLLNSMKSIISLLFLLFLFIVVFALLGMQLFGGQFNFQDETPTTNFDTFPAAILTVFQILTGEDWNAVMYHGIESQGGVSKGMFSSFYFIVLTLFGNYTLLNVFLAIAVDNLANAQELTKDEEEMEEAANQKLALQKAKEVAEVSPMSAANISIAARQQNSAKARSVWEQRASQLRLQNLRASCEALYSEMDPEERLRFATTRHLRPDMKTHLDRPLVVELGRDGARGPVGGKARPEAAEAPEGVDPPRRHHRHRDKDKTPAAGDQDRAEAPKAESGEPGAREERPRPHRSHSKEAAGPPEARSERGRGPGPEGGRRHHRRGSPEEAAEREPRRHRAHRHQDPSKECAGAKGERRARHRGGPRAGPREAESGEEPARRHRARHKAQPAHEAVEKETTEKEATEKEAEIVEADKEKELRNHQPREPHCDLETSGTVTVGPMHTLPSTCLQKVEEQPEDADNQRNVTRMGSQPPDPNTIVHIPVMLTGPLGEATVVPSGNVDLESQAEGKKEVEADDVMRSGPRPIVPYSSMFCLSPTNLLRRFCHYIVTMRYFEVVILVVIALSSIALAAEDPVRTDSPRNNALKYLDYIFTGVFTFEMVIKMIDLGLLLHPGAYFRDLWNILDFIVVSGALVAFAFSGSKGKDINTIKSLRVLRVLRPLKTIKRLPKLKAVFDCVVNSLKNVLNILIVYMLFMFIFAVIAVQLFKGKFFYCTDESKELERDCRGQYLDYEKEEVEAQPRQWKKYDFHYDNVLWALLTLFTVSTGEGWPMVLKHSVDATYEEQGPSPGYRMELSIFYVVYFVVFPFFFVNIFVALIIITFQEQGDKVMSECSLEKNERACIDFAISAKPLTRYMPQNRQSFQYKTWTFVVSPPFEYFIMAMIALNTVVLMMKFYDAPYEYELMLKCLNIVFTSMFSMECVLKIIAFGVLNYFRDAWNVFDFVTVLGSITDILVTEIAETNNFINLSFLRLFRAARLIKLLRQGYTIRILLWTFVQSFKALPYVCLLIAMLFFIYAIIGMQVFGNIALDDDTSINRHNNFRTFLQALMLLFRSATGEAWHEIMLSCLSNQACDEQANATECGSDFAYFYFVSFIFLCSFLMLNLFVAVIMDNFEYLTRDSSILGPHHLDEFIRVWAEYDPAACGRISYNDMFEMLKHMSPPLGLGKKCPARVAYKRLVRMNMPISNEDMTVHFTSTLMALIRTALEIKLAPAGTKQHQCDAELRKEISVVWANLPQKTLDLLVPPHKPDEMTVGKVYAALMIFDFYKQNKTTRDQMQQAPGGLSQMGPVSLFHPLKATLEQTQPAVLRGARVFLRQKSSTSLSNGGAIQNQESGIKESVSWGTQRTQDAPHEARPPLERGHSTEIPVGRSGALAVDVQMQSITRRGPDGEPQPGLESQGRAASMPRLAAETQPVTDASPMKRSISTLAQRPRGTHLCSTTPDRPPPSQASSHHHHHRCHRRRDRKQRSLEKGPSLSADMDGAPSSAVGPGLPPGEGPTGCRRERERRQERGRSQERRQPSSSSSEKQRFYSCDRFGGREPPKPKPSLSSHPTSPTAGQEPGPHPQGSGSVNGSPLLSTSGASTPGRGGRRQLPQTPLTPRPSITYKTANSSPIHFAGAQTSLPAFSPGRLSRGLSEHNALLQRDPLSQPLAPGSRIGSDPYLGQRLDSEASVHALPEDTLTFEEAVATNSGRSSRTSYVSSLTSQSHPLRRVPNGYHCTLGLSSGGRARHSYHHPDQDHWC
Chain of human Cav2.2 (P54289 25-956 partner limits assumed): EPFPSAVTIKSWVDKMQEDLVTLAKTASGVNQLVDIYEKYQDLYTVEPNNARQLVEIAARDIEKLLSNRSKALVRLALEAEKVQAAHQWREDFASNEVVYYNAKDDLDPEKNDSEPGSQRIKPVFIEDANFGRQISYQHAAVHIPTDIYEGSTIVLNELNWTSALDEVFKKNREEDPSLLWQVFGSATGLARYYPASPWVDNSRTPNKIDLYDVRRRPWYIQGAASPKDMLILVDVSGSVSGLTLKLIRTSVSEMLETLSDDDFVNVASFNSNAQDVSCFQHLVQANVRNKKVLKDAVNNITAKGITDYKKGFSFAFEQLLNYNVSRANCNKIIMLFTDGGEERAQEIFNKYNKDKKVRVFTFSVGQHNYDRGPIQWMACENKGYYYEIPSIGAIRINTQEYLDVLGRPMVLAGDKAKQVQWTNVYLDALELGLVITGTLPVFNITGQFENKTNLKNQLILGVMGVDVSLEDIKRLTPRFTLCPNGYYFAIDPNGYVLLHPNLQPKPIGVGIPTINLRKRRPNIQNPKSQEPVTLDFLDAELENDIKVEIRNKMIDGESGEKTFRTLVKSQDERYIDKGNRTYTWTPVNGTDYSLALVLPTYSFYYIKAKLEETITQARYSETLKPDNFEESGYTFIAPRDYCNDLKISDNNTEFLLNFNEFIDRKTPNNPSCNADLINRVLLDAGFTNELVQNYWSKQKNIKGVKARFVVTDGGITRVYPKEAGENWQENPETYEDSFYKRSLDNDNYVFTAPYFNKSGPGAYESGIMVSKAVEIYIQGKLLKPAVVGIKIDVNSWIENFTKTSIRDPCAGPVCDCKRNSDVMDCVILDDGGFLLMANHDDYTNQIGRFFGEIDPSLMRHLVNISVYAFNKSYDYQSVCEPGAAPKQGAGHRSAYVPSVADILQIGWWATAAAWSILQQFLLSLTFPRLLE
Chain of human Cav2.2 (P54289 957-1103 partner limits assumed): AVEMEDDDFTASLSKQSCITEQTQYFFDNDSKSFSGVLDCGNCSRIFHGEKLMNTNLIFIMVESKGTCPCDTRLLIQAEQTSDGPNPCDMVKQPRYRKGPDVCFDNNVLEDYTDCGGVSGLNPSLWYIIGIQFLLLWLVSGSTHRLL
Chain of human Cav2.2 (P54284 whole entry partner): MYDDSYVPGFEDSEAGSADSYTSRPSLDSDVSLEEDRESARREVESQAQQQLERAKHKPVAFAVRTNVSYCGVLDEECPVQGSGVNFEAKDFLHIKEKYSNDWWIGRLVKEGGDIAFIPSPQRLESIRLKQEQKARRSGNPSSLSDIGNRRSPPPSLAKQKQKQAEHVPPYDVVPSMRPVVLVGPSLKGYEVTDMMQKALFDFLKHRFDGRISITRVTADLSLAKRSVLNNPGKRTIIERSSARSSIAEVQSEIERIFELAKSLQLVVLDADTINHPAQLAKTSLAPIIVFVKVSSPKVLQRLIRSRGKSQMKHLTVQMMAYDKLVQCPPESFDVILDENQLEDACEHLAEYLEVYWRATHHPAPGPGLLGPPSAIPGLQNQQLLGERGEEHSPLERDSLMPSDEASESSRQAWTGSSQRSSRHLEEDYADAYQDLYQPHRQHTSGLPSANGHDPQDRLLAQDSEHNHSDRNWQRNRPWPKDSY
Details: not given
The gist of the method: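 Human neuroblastoma IMR32 cells were seeded at 1−1.2×10^5 cells/well and cultured 48 h at 37 °C before FLIPR calcium influx measurement. Percent inhibition at each concentration was calculated against the no-inhibitor signal, and IC50 came from sigmoidal dose-response fits.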
By IC50 is commonly meant the concentration that inhibits the measured activity by half. `CN[C@H]1CC[C@@H]2CN(S(=O)(=O)c3ccc(C(F)(F)F)cc3)C[C@@H]21` [Example 301, (3aR,4S,6aS)-N-methyl-2-{[4-(trifluoromethyl)phenyl]sulfonyl}octahydrocyclopenta[c]pyrrol-4-amine]: the IC50 was > 9 µM. In the case of `O=S(=O)(c1ccc(C(F)(F)F)cc1)N1C[C@H]2CC[C@H](NCc3cc4cc(F)ccc4[nH]3)[C@H]2C1` [Example 654, (3aR,4S,6aS)-N-[(5-fluoro-1H-indol-2-yl)methyl]-2-{[4-(trifluoromethyl)phenyl]sulfonyl}octahydrocyclopenta[c]pyrrol-4-amine], the concentration for half-maximal inhibition (IC50) stood at 0.82 µM. On to `CC(C)C(C(=O)N[C@H]1CC[C@@H]2CN(CCCCc3ccccc3)C[C@@H]21)c1ccccc1` (stereo partly drawn) [Example 113, 3-methyl-2-phenyl-N-[(3aR,4S,6aS)-2-(4-phenylbutyl)octahydrocyclopenta[c]pyrrol-4-yl]butanamide], for which the concentration for half-maximal inhibition (IC50) stood at 0.59 µM.

Turning to `CC[C@H](NC(C)C)C(=O)N[C@H]1CC[C@@H]2CN(c3ccc(C(F)(F)F)cc3)C[C@@H]21` [Example 762, (2S)-2-(isopropylamino)-N-{(3aR,4S,6aS)-2-[4-(trifluoromethyl)phenyl]octahydrocyclopenta[c]pyrrol-4-yl}butanamide], the IC50 stood at 5.11 µM. The same measure, in the same setting: the result for `CN[C@@H](CC(C)C)C(=O)N[C@H]1CC[C@@H]2CN(c3ccc(Cl)cc3)C[C@@H]21` [Example 639, N-[(3aR,4S,6aS)-2-(4-chlorophenyl)octahydrocyclopenta[c]pyrrol-4-yl]-N^2-methyl-L-leucinamide] reads 7.77 µM; that for `CCCC[C@H](NC)C(=O)N[C@H]1CC[C@@H]2CN(c3cccc(C(F)(F)F)n3)C[C@@H]21` [Example 589, N^2-methyl-N-{(3aR,4S,6aS)-2-[6-(trifluoromethyl)pyridin-2-yl]octahydrocyclopenta[c]pyrrol-4-yl}-L-norleucinamide], 0.32 µM; that for `CN[C@@H](CC(C)C)C(=O)N[C@H]1CC[C@@H]2CN(c3ccccc3F)C[C@@H]21` [Example 619, N-[(3aR,4S,6aS)-2-(2-fluorophenyl)octahydrocyclopenta[c]pyrrol-4-yl]-N^2-methyl-L-leucinamide], 2.84 µM.

As for `FC(F)(F)c1cccc(N2C[C@H]3CC[C@H](NCc4c[nH]nc4-c4ccccc4)[C@H]3C2)n1` [Example 682, (3aR,4S,6aS)-N-[(3-phenyl-1H-pyrazol-4-yl)methyl]-2-[6-(trifluoromethyl)pyridin-2-yl]octahydrocyclopenta[c]pyrrol-4-amine], the IC50 was determined as 0.87 µM. On the same count and under the same terms, next, `O=S(=O)(N[C@H]1CC[C@@H]2CN(c3cccc(C(F)(F)F)n3)C[C@@H]21)c1ccc(Cl)cc1` [Example 700, 4-chloro-N-{(3aR,4S,6aS)-2-[6-(trifluoromethyl)pyridin-2-yl]octahydrocyclopenta[c]pyrrol-4-yl}benzenesulfonamide]: 4.96 µM; `CC[C@H](C)[C@H](NC)C(=O)N[C@H]1CC[C@@H]2CN(S(=O)(=O)c3ccc(C(F)(F)F)cc3)C[C@@H]21` [Example 411, N^2-methyl-N^1-((3aR,4S,6aS)-2-{[4-(trifluoromethyl)phenyl]sulfonyl}octahydrocyclopenta[c]pyrrol-4-yl)-L-isoleucinamide]: 2.31 µM. Regarding `CC(C)(C)C[C@H](N)C(=O)N[C@H]1CC[C@@H]2CN(C(=O)[C@@H](N)Cc3ccccc3)C[C@@H]21` [Example 465, 4-methyl-N^1-[(3aR,4S,6aS)-2-L-phenylalanyloctahydrocyclopenta[c]pyrrol-4-yl]-L-leucinamide], the IC50 was > 30 µM. Same read-out and setting: next, `CC(C)NCC(=O)N[C@H]1CC[C@@H]2CN(c3ccc(C(F)(F)F)cc3)C[C@@H]21` [Example 761, N^2-isopropyl-N-{(3aR,4S,6aS)-2-[4-(trifluoromethyl)phenyl]octahydrocyclopenta[c]pyrrol-4-yl}glycinamide]: 3.59 µM; `O=C(N[C@H]1CC[C@H]2CN(Cc3ccccc3)C[C@H]21)C1(c2ccccc2)CCCC1` (relative stereo) [Example 1, N-[(3aS*,4S*,6aR*)-2-benzyloctahydrocyclopenta[c]pyrrol-4-yl]-1-phenylcyclopentanecarboxamide]: 1.93 µM; `O=C(N[C@H]1CC[C@@H]2CN(c3ccccc3C(F)(F)F)C[C@@H]21)[C@@H]1C[C@@H](F)CN1` [Example 622, (4R)-4-fluoro-N-{(3aR,4S,6aS)-2-[2-(trifluoromethyl)phenyl]octahydrocyclopenta[c]pyrrol-4-yl}-L-prolinamide]: 1.69 µM.

Take `Cc1ccc(-c2n[nH]cc2CN[C@H]2CC[C@@H]3CN(c4cccc(C(F)(F)F)n4)C[C@@H]32)cc1` [Example 673, (3aR,4S,6aS)-N-{[3-(4-methylphenyl)-1H-pyrazol-4-yl]methyl}-2-[6-(trifluoromethyl)pyridin-2-yl]octahydrocyclopenta[c]pyrrol-4-amine]: the 50% inhibitory concentration (IC50) stood at 0.74 µM. Still for that read-out and setting: next, `Cc1c[nH]c(C(=O)N[C@H]2CC[C@@H]3CN(c4cccc(C(F)(F)F)n4)C[C@@H]32)c1` [Example 572, 4-methyl-N-{(3aR,4S,6aS)-2-[6-(trifluoromethyl)pyridin-2-yl]octahydrocyclopenta[c]pyrrol-4-yl}-1H-pyrrole-2-carboxamide]: 1.01 µM; `CN[C@@H](CC(C)C)C(=O)N[C@H]1CC[C@@H]2CN(c3cccc(F)c3)C[C@@H]21` [Example 629, N-[(3aR,4S,6aS)-2-(3-fluorophenyl)octahydrocyclopenta[c]pyrrol-4-yl]-N^2-methyl-L-leucinamide]: 4.22 µM.

As to `Fc1ccc2[nH]c(CN[C@H]3CC[C@@H]4CN(c5cccc(OC(F)(F)F)c5)C[C@@H]43)cc2c1` [Example 715, (3aR,4S,6aS)-N-[(5-fluoro-1H-indol-2-yl)methyl]-2-[3-(trifluoromethoxy)phenyl]octahydrocyclopenta[c]pyrrol-4-amine], the IC50 was 2.78 µM.

Still in this assay, the particulars now being: read-out: IC50 (μM) or percent inhibition (* indicates 3 minute incubation, otherwise 60 minute); IC50; 60 minute pre-incubation with compound; IMR32 cells, 80 mM KCl depolarization.
Take `CC[C@H](C(=O)N[C@H]1CC[C@H]2CN([C@@H](C)c3ccccc3)C[C@H]21)c1ccccc1` [Example 212, (2S)-2-phenyl-N-{(3aS,4S,6aR)-2-[(1S)-1-phenylethyl]octahydrocyclopenta[c]pyrrol-4-yl}butanamide]: the IC50 worked out at 4.13 µM. The same measure, in the same setting: the result for `O=C(N[C@H]1CC[C@H]2CN(Cc3ccc(C(F)(F)F)c(F)c3)C[C@H]21)C(C1CCCCC1)C1CCCCC1` [Example 58, 2,2-dicyclohexyl-N-{(3aS,4S,6aR)-2-[3-fluoro-4-(trifluoromethyl)benzyl]octahydrocyclopenta[c]pyrrol-4-yl}acetamide] reads 1.35 µM; that for “N-methyl-N-((3aR,4S,6aS)-2-{[3-(trifluoromethyl)phenyl]sulfonyl}octahydrocyclopenta[c]pyrrol-4-yl)-L-phenylalaninamide [Example 386]”, 1.62 µM. Same read-out and setting: the result for `O=S(=O)(c1cccc(C(F)(F)F)c1)N(C1CC1)[C@H]1CC[C@H]2CN(Cc3ccccc3)C[C@H]21` (relative stereo) [Example 199, N-[(3aS*,4S*,6aR*)-2-benzyloctahydrocyclopenta[c]pyrrol-4-yl]-N-cyclopropyl-3-(trifluoromethyl)benzenesulfonamide] reads 2.21 µM; that for `CC(C)C[C@H](NC(=O)NC(C)(C)C)C(=O)N[C@@H]1CC[C@H]2CN(Cc3cccc(C(F)(F)F)c3)C[C@H]21` [Example 180, N^2-[(tert-butylamino)carbonyl]-N^1-{(3aS,4R,6aR)-2-[3-(trifluoromethyl)benzyl]octahydrocyclopenta[c]pyrrol-4-yl}-L-leucinamide], 1.83 µM; that for `CC(C)N[C@H]1CC[C@@H]2CN(S(=O)(=O)c3ccc(C(F)(F)F)cc3Cl)C[C@@H]21` [Example 284, (3aR,4S,6aS)-2-{[2-chloro-4-(trifluoromethyl)phenyl]sulfonyl}-N-isopropyloctahydrocyclopenta[c]pyrrol-4-amine], 3.7 µM. Regarding “(3aR,4S,6aS)-N-(1H-pyrrolo[2,3-b]pyridin-2-ylmethyl)-2-[6-(trifluoromethyl)pyridin-2-yl]octahydrocyclopenta[c]pyrrol-4-amine [Example 693]”, the IC50 came out at 1.42 µM. Same read-out and setting: the result for `CC(C)C[C@@H](C(=O)N[C@@H]1CC[C@H]2CNC[C@H]21)N(C)C(=O)OC(C)(C)C` [Example 349, tert-butyl methyl((S)-4-methyl-1-((3aS,4R,6aR)-octahydrocyclopenta[c]pyrrol-4-ylamino)-1-oxopentan-2-yl)carbamate] reads 17.6 µM. Same read-out and setting: the result for `O=S(=O)(N[C@H]1CC[C@H]2CN(Cc3cccc(C(F)(F)F)c3)C[C@H]21)c1cccc(C(F)(F)F)c1` (relative stereo) [Example 185, 3-(trifluoromethyl)-N-{(3aS*,4S*,6aR*)-2-[3-(trifluoromethyl)benzyl]octahydrocyclopenta[c]pyrrol-4-yl}benzenesulfonamide] reads 0.91 µM.

Turning to `CC(C)(C)C(C(=O)N[C@H]1CC[C@@H]2CN(Cc3ccccc3)C[C@@H]21)c1ccccc1` (stereo partly drawn) [Example 52, N-[(3aR,4S,6aS)-2-benzyloctahydrocyclopenta[c]pyrrol-4-yl]-3,3-dimethyl-2-phenylbutanamide], the IC50 is 3.36 µM. On the same count and under the same terms, the result for `O=C(N[C@H]1CC[C@H]2CN(C(c3ccccc3)c3ccccc3)C[C@H]21)C(C1CCCCC1)C1CCCCC1` [Example 120, N-[(3aS,4S,6aR)-2-benzhydryloctahydrocyclopenta[c]pyrrol-4-yl]-2,2-dicyclohexylacetamide] reads 3.44 µM. The same measure, in the same setting: the result for `CC(C)C[C@H](N)C(=O)N[C@@H]1CC[C@H]2CN(Cc3cccc(C(F)(F)F)c3)C[C@H]21` (relative stereo) [Example 161, N^1-{(3aS*,4R*,6aR*)-2-[3-(trifluoromethyl)benzyl]octahydrocyclopenta[c]pyrrol-4-yl}-L-leucinamide] reads 3.89 µM; that for `CCC[C@H](NC)C(=O)N[C@H]1CC[C@@H]2CN(Cc3ccc(C(F)(F)F)cc3)C[C@@H]21` [Example 377, N^2-methyl-N^1-{(3aR,4S,6aS)-2-[4-(trifluoromethyl)benzyl]octahydrocyclopenta[c]pyrrol-4-yl}-L-norvalinamide], 13.3 µM.
